Measured values: patent publication US12343326B2, “Psychoactive medicines and their use for treating psychiatric and neurological conditions and disorders” (Transcend Therapeutics, Inc., priority 2021, dated 2025)

What was measured:
[1] = test system: mice; assay: Mouse fear extinction paradigm (PTSD model); assay type: in vivo; details: methylone 30 mg/kg IP; day 3
Source text: Effective PTSD treatments facilitate the disassociation between a traumatic memory and the patient's fear response, making cues for the traumatic memory evoke less of a fear response. This is modeled in the mouse fear extinction paradigm (see FIG. 9A) which takes place over 3 days. On day 1 (fear conditioning), mice are trained to acquire a “traumatic memory,” namely associating the conditioned stimulus (CS, tone) to the unconditioned stimulus (US, foot shock). On day 2 (extinction training), they are trained to forget the traumatic memory association by presenting the CS 6 times (with no US) in a novel environment. On day 3 (extinction recall), the mice are “asked” if that tone (CS) still elicits a fearful response, as measured by the time spent freezing when the tone is presented. Less time freezing means better extinction recall. Drugs that improve extinction recall reduce freezing time on day 3, and, therefore, show potential as a PTSD treatment.

[2] = test system: rats; assay: Open field test (OFT); assay type: in vivo, rat; details: for time spent in the center of the open field vs. vehicle: single dose 5 or 15 mg/kg IP (text), 5-30 mg/kg (FIG. 11A), 30 minutes before testing
Procedure: This behavioral assay, also widely used as an anxiety paradigm, capitalizes on a rodent's innate fear of brightly lit open spaces, which are assumed to induce fear or anxiety. Rodents spend more time hugging the walls of the open field during the test, and these effects correlate to underlying brain regions and mechanisms.
Method: Consecutive beam breaks and/or video-tracking of time spent in the center versus periphery of the open field are measured. Also measured are parameters such as distance traveled and ambulatory activity (horizontal and vertical) for the duration of the test session.
The open field test (OFT) capitalizes on a rodent's innate fear of open spaces to assess anxiety-like behavior. More time spent in the center of an open field reflects an anxiolytic (anti-anxiety) effect.
Locomotor activity was also measured in the OFT.
To investigate whether MBDB has an anti-anxiety (anxiolytic) effect, rats were dosed with MBDB (0.5-30 mg/kg, IP) or vehicle (saline) and 30-minutes later were tested in the open field for 30 minutes. This anxiety test capitalizes on a rodents' innate fear of wide-open spaces and propensity to hug the walls when placed into the open field. Therefore, a drug that increases the time spent in the center of the open field has anxiolytic activity and predicts utility for treating anxiety in humans.

[3] = Excipient compatibility study (appearance, assay, related substances); assay type: physicochemical; details: closed vial
Procedure: Analyses were conducted at t=0, 2, 4 and 8 weeks for appearance, assay, and related substances for samples stored in closed vials at 25° C./60% RH and 40° C./75% RH.
Excipient Compatibility Sample Mixtures: The excipients and API were dispensed individually by weight into 20 mL clear borosilicate (type I) glass vials to fill the appropriate weights as listed in Table 12. Table 12 lists mixtures of API with varied excipients and a stand-alone control sample of API alone. Each excipient mixture sample preparation was conducted using a clean spatula to mix the vial ingredients for 30-60 seconds. Each vial was properly labeled with the description and storage conditions. One vial was used for testing at the initial (t=0) time point. Three vials, closed, were placed at each storage condition to allow sampling at each time point and one vial, closed, was placed at each storage condition for overage.

[4] = biological target: 168 GPCRs (Homo sapiens, UniProt O14842); assay: β-arrestin based GPCR screen (PathHunter / GPCRmax), agonist mode; assay type: cell-based; parameters: host or cells: PathHunter cell lines
Procedure: (§1) For agonist determination, cells were incubated with sample to induce response. […] Vehicle concentration was 1%.

[5] = biological target: T1, 168 GPCRs (Homo sapiens, UniProt P08173); assay: as above; assay type: cell-based; parameters: host or cells: PathHunter cell lines; details: CHRM4, Agonist
T1 sequence (P08173 1-479): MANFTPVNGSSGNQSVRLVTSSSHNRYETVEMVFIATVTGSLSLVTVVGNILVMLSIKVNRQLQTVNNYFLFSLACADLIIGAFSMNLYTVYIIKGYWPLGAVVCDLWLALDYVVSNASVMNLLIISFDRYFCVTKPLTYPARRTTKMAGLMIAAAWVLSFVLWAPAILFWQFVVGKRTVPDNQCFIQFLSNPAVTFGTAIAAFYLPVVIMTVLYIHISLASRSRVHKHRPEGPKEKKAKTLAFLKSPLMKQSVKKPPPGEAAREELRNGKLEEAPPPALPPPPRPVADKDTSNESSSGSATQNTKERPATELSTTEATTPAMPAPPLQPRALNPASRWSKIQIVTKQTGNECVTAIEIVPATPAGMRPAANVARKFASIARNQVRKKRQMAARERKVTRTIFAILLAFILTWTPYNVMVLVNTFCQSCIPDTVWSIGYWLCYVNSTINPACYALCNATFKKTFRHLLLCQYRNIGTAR
Procedure: as §1

[6] = biological target: 168 GPCRs (Homo sapiens, UniProt P25021); assay: as above; assay type: cell-based; parameters: host or cells: PathHunter cell lines
Procedure: as §1

[7] = biological target: 168 GPCRs (Homo sapiens, UniProt P25090); assay: as above; assay type: cell-based; parameters: host or cells: PathHunter cell lines
Procedure: as §1

[8] = biological target: 168 GPCRs (Homo sapiens, UniProt P25105); assay: as above; assay type: cell-based; parameters: host or cells: PathHunter cell lines; details: PTAFR
Procedure: as §1

[9] = biological target: 168 GPCRs (Homo sapiens, UniProt P35372); assay: as above; assay type: cell-based; parameters: host or cells: PathHunter cell lines
Procedure: as §1

[10] = biological target: 168 GPCRs (Homo sapiens, UniProt P43088); assay: as above; assay type: cell-based; parameters: host or cells: PathHunter cell lines; details: PTGFR
Procedure: as §1

[11] = biological target: 168 GPCRs (Homo sapiens, UniProt P49683); assay: as above; assay type: cell-based; parameters: host or cells: PathHunter cell lines; details: PRLHR
Procedure: as §1

[12] = biological target: 168 GPCRs (Homo sapiens, UniProt P51681); assay: as above; assay type: cell-based; parameters: host or cells: PathHunter cell lines; details: CCR5, CCR5, Agonist
Procedure: as §1

Sequence of 168 GPCRs (Homo sapiens, UniProt P49683) (P49683 whole entry): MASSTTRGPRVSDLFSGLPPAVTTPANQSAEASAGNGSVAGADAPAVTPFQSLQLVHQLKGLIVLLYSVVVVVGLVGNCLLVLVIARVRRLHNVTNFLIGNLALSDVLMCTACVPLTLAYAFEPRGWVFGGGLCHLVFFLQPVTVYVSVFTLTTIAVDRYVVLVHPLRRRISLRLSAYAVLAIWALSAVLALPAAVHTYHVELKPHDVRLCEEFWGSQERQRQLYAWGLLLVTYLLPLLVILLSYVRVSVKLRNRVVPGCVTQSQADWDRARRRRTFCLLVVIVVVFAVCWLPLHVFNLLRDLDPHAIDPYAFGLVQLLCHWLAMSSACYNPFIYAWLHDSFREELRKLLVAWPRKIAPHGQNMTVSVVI
Sequence of 168 GPCRs (Homo sapiens, UniProt P25090) (P25090 whole entry): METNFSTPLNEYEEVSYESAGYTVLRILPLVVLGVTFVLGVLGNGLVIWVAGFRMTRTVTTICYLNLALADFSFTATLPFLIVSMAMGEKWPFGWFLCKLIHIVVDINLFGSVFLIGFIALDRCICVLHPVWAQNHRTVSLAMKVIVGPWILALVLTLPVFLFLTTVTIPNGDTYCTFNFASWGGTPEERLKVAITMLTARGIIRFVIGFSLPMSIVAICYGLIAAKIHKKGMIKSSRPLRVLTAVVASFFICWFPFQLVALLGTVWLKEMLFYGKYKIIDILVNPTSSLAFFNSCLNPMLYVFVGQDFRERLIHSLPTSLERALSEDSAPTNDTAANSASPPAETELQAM
Sequence of 168 GPCRs (Homo sapiens, UniProt P43088) (P43088 whole entry): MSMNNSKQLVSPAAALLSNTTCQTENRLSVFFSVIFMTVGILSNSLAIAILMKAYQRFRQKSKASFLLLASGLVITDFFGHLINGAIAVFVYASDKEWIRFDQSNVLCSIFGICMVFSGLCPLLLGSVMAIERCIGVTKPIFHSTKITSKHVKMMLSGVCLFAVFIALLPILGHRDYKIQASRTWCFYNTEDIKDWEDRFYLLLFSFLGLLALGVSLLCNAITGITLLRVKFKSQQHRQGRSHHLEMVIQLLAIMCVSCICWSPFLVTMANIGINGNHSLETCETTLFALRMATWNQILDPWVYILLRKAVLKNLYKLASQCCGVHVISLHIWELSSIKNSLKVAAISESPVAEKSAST
Sequence of 168 GPCRs (Homo sapiens, UniProt P25105) (P25105 whole entry): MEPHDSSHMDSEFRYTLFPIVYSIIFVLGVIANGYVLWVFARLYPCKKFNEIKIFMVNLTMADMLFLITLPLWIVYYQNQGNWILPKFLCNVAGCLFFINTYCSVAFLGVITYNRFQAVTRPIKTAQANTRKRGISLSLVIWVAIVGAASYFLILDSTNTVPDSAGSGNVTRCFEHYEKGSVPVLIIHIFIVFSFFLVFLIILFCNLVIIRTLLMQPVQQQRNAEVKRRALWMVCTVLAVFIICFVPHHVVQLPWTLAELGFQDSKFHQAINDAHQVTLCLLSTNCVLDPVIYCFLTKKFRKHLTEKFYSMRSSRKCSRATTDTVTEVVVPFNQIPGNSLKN
Sequence of 168 GPCRs (Homo sapiens, UniProt P51681) (P51681 whole entry): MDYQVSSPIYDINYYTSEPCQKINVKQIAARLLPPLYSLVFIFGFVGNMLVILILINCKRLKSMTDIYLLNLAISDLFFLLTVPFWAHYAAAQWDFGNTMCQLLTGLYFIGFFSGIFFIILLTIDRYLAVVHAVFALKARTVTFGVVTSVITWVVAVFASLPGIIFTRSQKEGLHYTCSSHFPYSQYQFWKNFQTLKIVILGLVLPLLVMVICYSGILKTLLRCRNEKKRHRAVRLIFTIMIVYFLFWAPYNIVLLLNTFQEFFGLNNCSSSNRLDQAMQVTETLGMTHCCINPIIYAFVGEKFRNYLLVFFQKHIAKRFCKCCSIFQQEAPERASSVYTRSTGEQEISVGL
Sequence of 168 GPCRs (Homo sapiens, UniProt O14842) (O14842 whole entry): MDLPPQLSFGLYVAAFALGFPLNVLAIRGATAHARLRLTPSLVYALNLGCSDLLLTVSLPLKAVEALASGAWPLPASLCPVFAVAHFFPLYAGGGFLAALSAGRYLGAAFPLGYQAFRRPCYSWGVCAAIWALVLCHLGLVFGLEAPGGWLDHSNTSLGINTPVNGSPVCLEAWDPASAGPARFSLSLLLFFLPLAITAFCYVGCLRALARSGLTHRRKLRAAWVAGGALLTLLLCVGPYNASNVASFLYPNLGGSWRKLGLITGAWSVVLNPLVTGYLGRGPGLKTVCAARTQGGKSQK
Sequence of 168 GPCRs (Homo sapiens, UniProt P35372) (P35372 whole entry): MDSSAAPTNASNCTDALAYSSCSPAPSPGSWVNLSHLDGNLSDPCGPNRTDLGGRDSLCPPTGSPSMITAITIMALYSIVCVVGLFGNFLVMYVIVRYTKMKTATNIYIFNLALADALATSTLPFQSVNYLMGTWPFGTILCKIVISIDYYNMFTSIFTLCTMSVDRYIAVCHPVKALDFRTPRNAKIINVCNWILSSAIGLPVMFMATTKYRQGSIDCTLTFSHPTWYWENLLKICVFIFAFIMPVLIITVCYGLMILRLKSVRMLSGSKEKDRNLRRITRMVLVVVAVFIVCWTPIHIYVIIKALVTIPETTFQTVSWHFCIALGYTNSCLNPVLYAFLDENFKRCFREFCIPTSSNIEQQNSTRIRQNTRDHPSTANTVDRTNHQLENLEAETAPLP
Sequence of 168 GPCRs (Homo sapiens, UniProt P25021) (P25021 whole entry): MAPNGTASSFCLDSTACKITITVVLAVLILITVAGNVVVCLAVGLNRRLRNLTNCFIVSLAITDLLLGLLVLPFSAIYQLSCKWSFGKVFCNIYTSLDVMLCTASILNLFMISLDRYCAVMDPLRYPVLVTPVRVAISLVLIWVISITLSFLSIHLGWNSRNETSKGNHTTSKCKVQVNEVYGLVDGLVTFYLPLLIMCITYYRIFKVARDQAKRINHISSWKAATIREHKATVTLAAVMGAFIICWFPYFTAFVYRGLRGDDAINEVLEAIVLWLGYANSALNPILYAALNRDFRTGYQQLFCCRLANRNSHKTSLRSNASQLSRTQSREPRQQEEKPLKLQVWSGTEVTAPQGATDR

Structure (SMILES): CNC(C)C(=O)c1ccc2c(c1)OCO2 (stereo not shown) [methylone, 3,4-methylenedioxy-N-methylcathinone]
- locomotion during testing session [1]: no differences between groups in locomotion
- locomotor activity (OFT) vs. vehicle ([2]; methylone 5 mg/kg): no effect
- locomotor activity (OFT) vs. vehicle ([2]; methylone 15 or 30 mg/kg): significant increase in locomotor activity
- time spent in the center of the open field vs. vehicle [2]: significantly increases the time spent in the center
- time spent in the center of the open field vs. vehicle ([2]; listed as Methylone): significantly increased center time
- Assay (% Recovery) ([3]; 4 Week 25° C./60% RH): 100.3%
- Assay (% Recovery) ([3]; 8 Week 40° C./75% RH): 100.3%
- activity at 10 µM ([4]; FFAR1, Agonist mode, 10 uM): 4.5%
- activity at 1 µM ([4]; FFAR1, Agonist, 1 uM): 1.7%
- activity at 1 µM ([5]; 1 uM): -5.8%
- activity at 10 µM ([5]; 10 uM): -6.2%
- activity at 10 µM ([6]; HRH2, Agonist mode, 10 uM): 2.8%
- activity at 1 µM ([6]; HRH2, Agonist, 1 uM): -2.5%
- activity at 10 µM ([7]; FPRL1, Agonist mode, 10 uM): 0.1%
- activity at 1 µM ([7]; FPRL1, Agonist, 1 uM): -0.5%
- activity at 10 µM ([8]; Agonist mode, 10 uM): -2.6%
- activity at 1 µM ([8]; Agonist, 1 uM): -1.3%
- activity at 10 µM ([9]; OPRM1, OPRM1, Agonist mode, 10 uM): 0.5%
- activity at 1 µM ([9]; OPRM1, OPRM1, Agonist, 1 uM): 0.2%
- activity at 10 µM ([10]; Agonist mode, 10 uM): -0.2%
- activity at 1 µM ([10]; Agonist, 1 uM): 0.3%
- activity at 10 µM ([11]; Agonist mode, 10 uM): -0.2%
- activity at 1 µM ([11]; Agonist, 1 uM): -2.2%
- activity at 1 µM ([12]; 1 uM): -0.1%
- activity at 10 µM ([12]; 10 uM): 0.3%
